Six molecules from US7259144B2, “Methods for diagnosing and treatment of hyperphosphatemic conditions using FGF20 polypeptides” (CuraGen Corporation, priority 2003, dated 2007) can be followed below.

The test system of assay [1] is Caco2 cells. Put plainly: Caco2 cell proliferation (3H thymidine incorporation) with FGF-20 and kinase inhibitors. The class given is cell-based. The following applies: inhibitor added 1 hr before FGF-20 (100 ng/ml), PD098059 1, 5, 20, 40 μM, SB203580 1, 10, 20 μM. The procedure: FIG. 7 depicts effect of kinase inhibitors in the proliferation of Caco2 cells. Caco2 cells were incubated with FGF-20 (100 ng/ml) in the presence of various concentrations (1, 5, 20 and 40 μM) of PD098059, inhibitor of MEK which is upstream of ERK or various concentrations (1, 10, 20 μM) of SB203580, inhibitor of p38 MAPK inhibitor.
In addition to the above results, MEK inhibitor PD098059 (1, 5, 20, and 40μM CALBIOCHEM, CA), and p38 MAPK inhibitor SB203580 (1,10,20 μM CALBIOCHEM, CA) were added to the Caco2 cell cultures 1 hr before FGF-20 treatment. Cellular proliferation was tested by standard 3H thymidine incorporation assay known in the art.
For orientation: Incorporation of labelled thymidine or its analogues reports DNA synthesis.

Assay [2] is described as follows: Serum phosphate levels after CG53135-05 treatment, rat model. The class given is in vivo. The following applies: slow bolus i.v. once daily, 0.05, 5, 50 mg/kg, dose-dependent (FIG. 1). The procedure:
(§1) To evaluate the role of FGF20 in reduction of phosphate levels, two different animal models (rat and rhesus monkeys) were tested for serum phosphates following treatment with FGF20. Recombinant human FGF20 and the serum phosphate levels were measured. General protocols for the rat and Rhesus monkey models are outlined in the following Tables 1 (for the rat) and 2 (for the Rhesus monkey) below:
(§2) Both animal groups were dosed via a slow bolus intravenous injection in the tail vein, once daily for 14 days. The first day of dosing was designated as study day (“SD”) 1. Animals were dosed through SD 14.

Assay [3] is described as follows: Serum phosphate levels after CG53135-05 treatment, Rhesus monkey model. Format: in vivo. The following applies: slow bolus i.v. once daily, 1, 10 mg/kg, dose-dependent (FIG. 2). The method, then:
as §1, §2

Assay [4] has as its system NIH 3T3 cells. Put plainly: Induction of DNA synthesis (BrdU incorporation) in NIH 3T3 cells. The following applies: serum-starved NIH 3T3 cells; 18 h factor, 4 h BrdU incorporation. Format: cell-based. The method, then: Receptor Specificity NIH 3T3 cells were cultured in 96-well plates to approximately 100% confluence, washed and fed with DMEM without supplements (Life Technologies), and incubated for 24 h. Recombinant CG53135-01 or control protein was then added to the cells for 18 h. Control proteins used were aFGF (positive control) and platelet derived growth factor-BB (PDGFBB) (negative control). To analyze the effect of soluble FGFRs on CG53135-05 activity, recombinant CG53135-05, aFGF, or PDGF-BB (final concentrations of 10, 5 and 3 ng/mL, respectively), were mixed with soluble receptors (final concentrations of 0.2, 1 and 5 ug/mL), and incubated for 30 min at 37° C. prior to addition to serum-starved NIH 3T3 cells. Factor concentrations represent the amount of ligand needed to generate a half maximal BrdU response in NIH 3T3 cells. Soluble FGFRs were Fc chimeras of the following receptor forms (FGFR1β(IIIc); FGFR2β(IIIb); FGFR2α(IIIb); FGFR2α(IIIc); FGFR3α(IIIc); FGFR4) and were obtained from R&D Systems (Minneapolis, Minn.). The BrdU assay was performed according to the manufacturer's specifications (Roche Molecular Biochemicals, Indianapolis, Ind.) using a 4 h BrdU incorporation time.

The subject of assay [5] is Caco2 cells. Put plainly: Expression of signal transducing kinases in Caco2 cells with FGF-20. The class given is cell-based. The method, then:
FIG. 4 depicts effect of FGF20 (CG53135) in stimulation of kinases in Caco2 cells. Expression of signal transducing kinases was analyzed after incubation of Caco2 cells with FGF-20 (100 ng/ml) for different time points (10, 30, 60 mins).
(§3) FIG. 6 depicts Effect of FGF-20 on expression of kinases in intestinal epithelial cells. Caco2 cells were incubated with FGF-20 (100 ng/ml) for 10, 30, 60 minutes and expression of p-Elk-1, p-ATF-2 and p-PKC was analyzed. Similarly, HT-29 cells were incubated with FGF-20 (100 ng/ml) for 10, 30, 60 minutes and expression of C-Fos and C-Jun was analyzed.
(§4) MAPK-dependent mechanism may be involved in the regulation of phosphate uptake by FGF signaling. To test this hypothesis, various kinases were tested for their expression in the presence of 100 ng/ml of FGF-20, in Caco2 cells. […] In HT-29 cells, C-Fos and C-Jun were induced, when cultured with FGF-20 (FIG. 6).

Assay [6] concerns HT-29 cells. Nature of the assay: Expression of C-Fos and C-Jun in HT-29 cells with FGF-20. Format: cell-based. The following applies: 100 ng/ml, 10, 30, 60 minutes. The method, then: as §3, §4
Assay [7] has as its system OK cells. Nature of the assay: Phosphate uptake in OK cells. The class given is cell-based, opossum. The following applies: at 50 ng/ml. The method, then:
FIG. 8 depicts effect of FGF9 protein in phosphate transport. OK cells were treated with various concentrations of FGF9 protein and phosphate uptake was measured as noted in Example 6.
FIG. 9 depicts effect of FGF10 protein in phosphate transport. OK cells were treated with various concentrations of FGF10 protein and phosphate uptake was measured as noted in Example 6.
Measurement of phosphate transport is performed in cultured renal proximal tubular epithelial cell line using opossum kidney (OK) cells, in the presence of FGF-20 (CG53135-05). Briefly, OK cells are grown at 37° C. in Dulbecco's modified Eagle's medium with 10% fetal calf serum and seeded in multi-well dishes (6, 24, 96 well dishes). The phosphate uptake in OK cells is determined according to the method described by Hafdi et al (Biochem. J. 1996, 320:615-621).
Role of FGF9 and FGF10 in phosphate uptake was measured by the method described in Biochem. J. 1996, 320:615-621.

Consider `COc1cccc(-c2cc(=O)c3ccccc3o2)c1N` [PD098059], for which the “cellular proliferation (3H thymidine incorporation)” value in assay [1] is “decrease in cellular proliferation”.
`C[S+]([O-])c1ccc(-c2nc(-c3ccncc3)c(-c3ccc(F)cc3)[nH]2)cc1` (stereo not drawn) [SB203580]: the “cellular proliferation (3H thymidine incorporation)” value in assay [1] is “decrease in cellular proliferation”.
Regarding “CG53135-05: Recombinant human fibroblast growth factor 20 produced in E. coli; Swiss-Prot Q9NP95; SEQ ID NO:1”, the serum phosphate levels entry in assay [2] was “Statistically significant reductions”. Besides, the serum phosphate levels entry in assay [3] is “Statistically significant reductions”. Moreover, in assay [4], the “amount of ligand needed to generate a half maximal BrdU response” value (shortened to “amount of ligand needed”) came to 10 ng/mL. In assay [5] (100 ng/ml, 10, 30, 60 mins), the “expression of other kinases tested” value is listed as “no other kinase tested, showed any significant induction” and the “phosphorylated MAPK (p-p38MAPK) expression” value was “induced”. Besides, in assay [5] (100 ng/ml, 10, 30, 60 minutes), the “expression of phosphorylated ATF-2” value was “increased expression”, the “expression of phosphorylated Elk-1” value is recorded as “increased expression” and the “expression of phosphorylated Protein Kinase C” value is on record as “minimal induction”. In assay [6], the C-Fos expression entry is recorded as “induced” and the C-Jun expression result was “induced”.
Turning to “aFGF: positive control protein; factor known to interact with all of the FGFR's under analysis [reference compound]”, the “amount of ligand needed” value in assay [4] worked out at 5 ng/mL.

B1: PDGF-BB: platelet derived growth factor-BB, negative control protein (protein, UniProt P01127 82-190, looked up)
Platelet-derived growth …: SLGSLTIAEPAMIAECKTRTEVFEISRRLIDRTNANFLVWPPCVEVQRCSGCCNNRNVQCRPTQVQLRPVQVRKIEIVRKKPIFKKATVTLEDHLACKCETVAAARPVT
modifications: homodimer
notes: platelet derived growth factor-BB, negative control protein
As for B1, in assay [4], the “amount of ligand needed” value was 3 ng/mL.

B2: FGF10: human FGF 10 protein, Swiss-Prot Accession No: O15520 (protein, UniProt O15520 38-208, looked up)
Fibroblast growth factor 10: QALGQDMVSPEATNSSSSSFSSPSSAGRHVRSYNHLQGDVRWRKLFSFTKYFLKIEKNGKVSGTKKENCPYSILEITSVEIGVVAVKAINSNYYLAMNKKGKLYGSKEFNNDCKLKERIEENGYNTYASFNWQHNGRQMYVALNGKGAPRRGQKTRRKNTSAHFLPMVVHS
On to B2, for which the phosphate transport entry in assay [7] is reported as “more efficient in inhibiting the phosphate transport”.
